# Measurements reported in ChEMBL document CHEMBL1143142, “5-Substituted 1H-pyrrolo[3,2-b]pyridines as inhibitors of gastric acid secretion” (Bioorg Med Chem, 2008).
# Experiments:
# [1] = Dissociation constant, pKa of the compound; format: physicochemical
# Gastric gland = test: Inhibition of gastric acid secretion in rabbit gastric gland assessed as accumulation of 14C]-[…]; format: functional, tissue-based; conditions: Oryctolagus cuniculus
# [2] = Distribution coefficient, log D at pH 7.4; conditions: octanol/water
# [3] = Inhibition of hog gastric mucosa H/+K+ ATPase; format: tissue-based
pKa [1],IC50 (Gastric gland),logD [2],Log IC50 [3],SMILES
7.2,63.1 µM,2.95,-5.6,Cc1cccc(C)c1CNc1cc(C(=O)N(C)C)nc2c(CO)c(C)[nH]c12
6.02,3.16 µM,> 4.8,-5,Cc1cccc(C)c1CNc1cc(C(=O)N(C)C)nc2c(Br)c(C)[nH]c12
5.84,10 µM,> 4.8,-5,CCc1cccc(C)c1CNc1cc(C(=O)N(C)C)nc2c(Br)c(C)[nH]c12
7.57,0.251 µM,4.6,-6.6,CCc1cccc(C)c1CNc1cc(C(=O)N(C)C)nc2c(C)c(C)[nH]c12
7.33,1.58 µM,2.96,-5.5,CNC(=O)c1cc(NCc2c(C)cccc2C)c2[nH]c(C)cc2n1
7.39,5.01 µM,–,< -4,CNC(=O)c1cc(NCc2c(C)cccc2C)c2[nH]c(C)c(Br)c2n1
7.56,0.251 µM,–,-6.9,Cc1cccc(C)c1CNc1cc(C(=O)N(C)C)nc2c(C)c(C)[nH]c12

# Further lines, the molecule ahead of its results:
SMILES,pKa [1],IC50 (Gastric gland),logD [2],Log IC50 [3]
CCc1cccc(C)c1CNc1cc(C(=O)N(C)C)nc2c(CO)c(C)[nH]c12,7.07,50.1 µM,3.27,-5.7
Cc1cccc(C)c1CNc1cc(C(=O)N(C)C)nc2c(C)c(C)n(Cc3ccccc3)c12,6.86,1 µM,5.2,-5.1
Cc1cccc(C)c1CNc1cc(C(=O)N(C)C)nc2c(CO)c(C)n(Cc3ccccc3)c12,6.52,10 µM,3.87,-4.6
Cc1cccc(C)c1CNc1cc(C(=O)N(C)C)nc2c(C)c(C)n(C)c12,7.13,15.8 µM,3.53,-4.6
Cc1cc2nc(C(=O)N(C)C)cc(NCc3c(C)cccc3C)c2[nH]1,7.3,2.51 µM,3.62,-6.1
CCc1cccc(C)c1CNc1cc(C(=O)N(C)C)nc2cc(C)[nH]c12,7.39,3.16 µM,4.1,-5.9
Cc1cccc(C)c1CNc1cc(C(=O)N(C)C)nc2c(C)c(C)n(CC(C)O)c12 (centres undefined),7.19,3.98 µM,3.4,-4.8
